Test results: US9593155B2, “Oxyntomodulin analogs” (priority 2009, dated 2017)
Where two headings read alike, the source gives them in different places. Blank lines part the entries; values can stand above or below the compound they belong to. *1 amine or outer side, *2 acyl side, *3 side chain or, on linkers, in order; H or OH if unused. Where a SMILES comes first, the peptide text is derived from it. Bridges are numbered along the chain shown (N, C = ends). Where no end group is shown, it is not given here. Side-chain parts run from the residue outwards. [ ]: non-standard residue; d: D form. The star is where a group is joined. X2 = CC(C)CCC[C@@H](C)[C@H]1CC[C@H]2[C@@H]3CC=C4C[C@@H](OC(=O)CCOCCOCCOCCOCCOCCOCCOCCOCCOCCOCCOCCOCCNC(=O)C*)CC[C@]4(C)[C@H]3CC[C@]12C; γGlu = O=C(O)[C@H](CCC(=O)[*:2])N[*:1]; Palmitoyl = CCCCCCCCCCCCCCCC(=O)*; Aib = CC(C)(N)C(=O)O

What was measured:
[1] = target: T1, hGLP-1R (Homo sapiens, UniProt P43220); assay: cell-based cAMP assay as described in WO2008101017 (Table 11), hGLP-1R
Source text: (§1) This example presents tables showing the in vitro potencies of various peptide analogs at the human GLP-1 receptor (hGLP-1R) and the human glucagon receptor (hGCGR).

[2] = target: T2, hGCGR (Homo sapiens, UniProt P47871); assay: cell-based cAMP assay as described in WO2008101017 (Table 11), hGCGR
Source text: as §1

[3] = target: T2, hGCGR; assay: fluorescence cell based cAMP assay, CHO cells stably expressing GCGR
Description: (§2) We initially screened peptides in fluorescence cell based assays that measure production of cyclic-AMP (cAMP), using CHO cell lines stably expressing either recombinant human GLP-1R or human GCGR. Determination of Mouse and human GLP-1R and GCGR Agonist Activity was essentially as follows. CHO cells stably expressing mouse or human GLP-1R or GCGR were grown in Iscove's Modified Dulbecco's Medium (IMDM), 10% FBS, 1 mM L-glutamine, penicillin-streptomycin (100 μ/mL) and 750 μg G418/mL for three-four days before harvesting using Enzymefree Dissociation Media (EFDM, Specialty Media). […] The assay was terminated with the addition of the LANCE kit Detection buffer as per the manufacturer's instructions. The plates were held an additional hour at room temperature, then increasing cAMP levels were detected by a decrease in TR-FRET signal as measured in an EnVision counter (PerkinElmer) in comparison to a standard curve of cAMP as per the manufacturer's instructions. Data were analyzed using the linear and nonlinear regression analysis software, GraphPad Prism.
(§3) The in vitro potencies shown in Table 10 or Table 11 were determined from the results of assays that were similar to either the cell-based cAMP assays described herein above (Table 10) or the cell-based cAMP assays described in International Published Application No. WO2008101017, which is incorporated herein in its entirety, in particular the cell-based cAMP assays described therein (Table 11).

[4] = pI of the peptide analogs
[5] = target: T1, hGLP-1R; assay: fluorescence cell based cAMP assay, CHO cells stably expressing GLP-1R; set-up: expressed in transfected cells; settings: hGLP-1R EC50, Table 10
Description: as §2, with “The” for “The assay was terminated with the addition of the LANCE kit Detection buffer as per the manufacturer's instructions. The”
as §3

[6] = target: T3, GCGR (Mus musculus, UniProt Q61606); assay: in vivo GCGR receptor occupancy competition assay with 125I-glucagon in wild-type mice
T3 construct: from tissue; host or cells: liver of wild-type mice, dosed in vivo

[7] = hyperglycemic clamp in DIO mice; format: in vivo, mouse; settings: ~16 μg/kg/min i.v., last 60 minutes
[8] = target: T2, hGCGR; assay: ex vivo perfused liver glycogenolysis assay (13C NMR), humanized GCGR mice; settings: at 300 nM
[9] = 14 day chronic infusion food intake and body weight study in DIO mice; format: in vivo, mouse; settings: for Cumulative food intake change / Cumulative weight change: 14 day chronic infusion
[10] = intraperitoneal glucose tolerance test (IPGTT) in lean C57BL/6N mice; format: in vivo, mouse

T1 sequence (P43220 24-463): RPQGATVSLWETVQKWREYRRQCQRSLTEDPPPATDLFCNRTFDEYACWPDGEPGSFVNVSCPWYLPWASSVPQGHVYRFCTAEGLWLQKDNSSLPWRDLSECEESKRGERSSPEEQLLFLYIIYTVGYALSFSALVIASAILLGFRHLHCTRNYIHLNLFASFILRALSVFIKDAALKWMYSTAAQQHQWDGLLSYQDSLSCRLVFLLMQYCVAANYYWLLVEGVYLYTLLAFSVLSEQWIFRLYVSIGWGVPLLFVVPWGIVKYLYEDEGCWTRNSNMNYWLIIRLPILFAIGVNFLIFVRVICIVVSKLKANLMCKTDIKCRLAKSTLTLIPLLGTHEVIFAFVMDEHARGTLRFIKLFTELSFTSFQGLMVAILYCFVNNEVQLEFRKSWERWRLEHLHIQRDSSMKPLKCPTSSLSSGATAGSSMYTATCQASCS
T2 sequence (P47871 26-477): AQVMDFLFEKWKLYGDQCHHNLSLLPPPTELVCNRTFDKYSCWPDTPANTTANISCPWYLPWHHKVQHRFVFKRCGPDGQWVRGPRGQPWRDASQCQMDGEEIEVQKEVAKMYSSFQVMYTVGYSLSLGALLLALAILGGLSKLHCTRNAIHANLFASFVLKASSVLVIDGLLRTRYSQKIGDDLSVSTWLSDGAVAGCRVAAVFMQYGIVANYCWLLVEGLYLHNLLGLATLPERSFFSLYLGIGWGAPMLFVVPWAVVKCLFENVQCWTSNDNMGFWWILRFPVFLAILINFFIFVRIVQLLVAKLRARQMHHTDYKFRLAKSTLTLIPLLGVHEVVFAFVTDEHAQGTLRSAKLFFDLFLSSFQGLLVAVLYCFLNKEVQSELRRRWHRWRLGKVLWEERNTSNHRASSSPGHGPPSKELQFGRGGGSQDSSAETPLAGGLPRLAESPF
T3 sequence (Q61606 27-485): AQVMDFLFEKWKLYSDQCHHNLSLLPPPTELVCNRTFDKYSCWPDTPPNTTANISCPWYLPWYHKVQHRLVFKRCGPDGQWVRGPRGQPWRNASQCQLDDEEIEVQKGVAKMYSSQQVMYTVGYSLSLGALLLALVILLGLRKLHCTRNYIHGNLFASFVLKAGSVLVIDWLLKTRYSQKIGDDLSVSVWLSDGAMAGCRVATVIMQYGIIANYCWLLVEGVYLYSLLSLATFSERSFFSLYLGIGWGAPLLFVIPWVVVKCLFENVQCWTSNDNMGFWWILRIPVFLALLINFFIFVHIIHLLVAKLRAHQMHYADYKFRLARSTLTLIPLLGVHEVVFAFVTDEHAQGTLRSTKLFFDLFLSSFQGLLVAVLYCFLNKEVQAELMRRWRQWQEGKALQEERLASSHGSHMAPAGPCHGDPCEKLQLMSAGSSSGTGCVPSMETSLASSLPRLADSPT

EC50 [1]: 0.007 nM | EC50 [2]: 0.005 nM
Compound: CCCCCCCCCCCCCCCC(=O)N[C@@H](CCC(=O)N[C@@H](CCC(=O)NCCCC[C@H](NC(=O)[C@H](CC(=O)O)NC(=O)[C@H](CO)NC(=O)[C@@H](NC(=O)[C@H](Cc1ccccc1)NC(=O)[C@@H](NC(=O)CNC(=O)[C@H](CCC(N)=O)NC(=O)[C@@H](CO)NC(=O)[C@@H](N)Cc1c[nH]cn1)[C@@H](C)O)[C@@H](C)O)C(=O)N[C@@H](CO)C(=O)N[C@@H](CCCCN)C(=O)N[C@@H](Cc1ccc(O)cc1)C(=O)N[C@@H](CC(C)C)C(=O)N[C@@H](CC(=O)O)C(=O)N[C@@H](CCC(=O)O)C(=O)N[C@@H](CCCNC(=N)N)C(=O)N[C@@H](CCCNC(=N)N)C(=O)N[C@@H](C)C(=O)N[C@@H](CCC(N)=O)C(=O)N[C@@H](CC(=O)O)C(=O)N[C@@H](Cc1ccccc1)C(=O)N[C@H](C(=O)N[C@@H](CCC(N)=O)C(=O)N[C@@H](Cc1c[nH]c2ccccc12)C(=O)N[C@@H](CC(C)C)C(=O)N[C@@H](CCSC)C(=O)N[C@@H](CC(N)=O)C(=O)N[C@H](C(=O)N[C@@H](CCCCN)C(=O)N[C@@H](CCC(N)=O)C(=O)O)[C@@H](C)O)C(C)C)C(=O)O)C(=O)O [MM111] (H-H[dS]QGTFTSDK([γGlu-γGlu-Palmitoyl])SKYLDERRAQDFVQWLMNTKQ-OH)

EC50 [1]: 0.026 nM | EC50 ([3]; hGCGR + 20% plasma EC50, Table 10, 20% plasma): 0.3 nM | pI ([4]; Table 10): 5.5
Compound: CCCCCCCCCCCCCCCC(=O)N[C@@H](CCC(=O)N[C@@H](CCC(=O)NCCCC[C@H](NC(=O)[C@H](CC(=O)O)NC(=O)[C@H](CO)NC(=O)[C@@H](NC(=O)[C@H](Cc1ccccc1)NC(=O)[C@@H](NC(=O)CNC(=O)[C@H](CCC(N)=O)NC(=O)[C@@H](CO)NC(=O)[C@@H](N)Cc1c[nH]cn1)[C@@H](C)O)[C@@H](C)O)C(=O)N[C@@H](CO)C(=O)N[C@@H](CCCCN)C(=O)N[C@@H](Cc1ccc(O)cc1)C(=O)N[C@@H](CC(C)C)C(=O)N[C@@H](CC(=O)O)C(=O)NC(C)(C)C(=O)N[C@@H](CCCNC(=N)N)C(=O)N[C@@H](CCCNC(=N)N)C(=O)N[C@@H](C)C(=O)N[C@@H](CCC(N)=O)C(=O)N[C@@H](CC(=O)O)C(=O)N[C@@H](Cc1ccccc1)C(=O)N[C@H](C(=O)N[C@@H](CCC(N)=O)C(=O)N[C@@H](Cc1c[nH]c2ccccc12)C(=O)N[C@@H](CC(C)C)C(=O)N[C@@H](CCSC)C(=O)N[C@@H](CC(N)=O)C(=O)N[C@H](C(=O)N[C@@H](CCCCN)C(=O)N[C@@H](CCC(N)=O)C(=O)O)[C@@H](C)O)C(C)C)C(=O)O)C(=O)O [OXM418]

Compound: CSCC[C@H](NC(=O)[C@H](CC(C)C)NC(=O)[C@H](Cc1c[nH]c2ccccc12)NC(=O)[C@H](CCC(N)=O)NC(=O)[C@@H](NC(=O)[C@H](Cc1ccccc1)NC(=O)[C@H](CC(=O)O)NC(=O)[C@@H]1CCCCNC(=O)CC[C@H](NC(=O)[C@H](CC(=O)O)NC(=O)[C@H](CC(C)C)NC(=O)[C@H](Cc2ccc(O)cc2)NC(=O)[C@H](CCCCN)NC(=O)[C@H](CO)NC(=O)[C@H](Cc2ccc(O)cc2)NC(=O)[C@H](CC(=O)O)NC(=O)[C@H](CO)NC(=O)[C@@H](NC(=O)[C@H](Cc2ccccc2)NC(=O)[C@@H](NC(=O)CNC(=O)[C@H](CCC(N)=O)NC(=O)C(C)(C)NC(=O)[C@@H](N)Cc2c[nH]cn2)[C@@H](C)O)[C@@H](C)O)C(=O)N[C@@H](CCCNC(=N)N)C(=O)N[C@@H](CCCNC(=N)N)C(=O)N[C@@H](C)C(=O)N1)C(C)C)C(=O)N[C@@H](CC(N)=O)C(=O)N[C@H](C(=O)N[C@@H](CCCCN)C(=O)N[C@@H](CCC(=O)N[C@@H](CCC(=O)N[C@@H](CSCC(=O)NCCOCCOCCOCCOCCOCCOCCOCCOCCOCCOCCOCCOCCC(=O)O[C@H]1CC[C@@]2(C)C(=CC[C@H]3[C@@H]4CC[C@H]([C@H](C)CCCC(C)C)[C@@]4(C)CC[C@@H]32)C1)C(=O)O)C(=O)O)C(=O)O)[C@@H](C)O [OXM395] (H-H[Aib]QGTFTSDYSKYLDERRAKDFVQWLMNTK[γGlu][γGlu]C(X2)-OH; lactam 16-20; N-terminus assumed)
EC50 [5]: 0.7 nM | pI [4]: about 5.4 | pI ([4]; Table 10): 5.4

EC50 [1]: 0.026 nM | EC50 [2]: 0.005 nM
Compound: CCCCCCCCCCCCCCCC(=O)N[C@@H](CCC(=O)N[C@@H](CCC(=O)NCCCC[C@H](NC(=O)[C@H](CC(=O)O)NC(=O)[C@H](CO)NC(=O)[C@@H](NC(=O)[C@H](Cc1ccccc1)NC(=O)[C@@H](NC(=O)CNC(=O)[C@H](CCC(N)=O)NC(=O)[C@@H](CO)NC(=O)[C@@H](N)Cc1c[nH]cn1)[C@@H](C)O)[C@@H](C)O)C(=O)N[C@@H](CO)C(=O)N[C@@H](CCCCN)C(=O)N[C@@H](Cc1ccc(O)cc1)C(=O)N[C@@H](CC(C)C)C(=O)N[C@@H](CC(=O)O)C(=O)NC(C)(C)C(=O)N[C@@H](CCCNC(=N)N)C(=O)N[C@@H](CCCNC(=N)N)C(=O)N[C@@H](C)C(=O)N[C@@H](CCC(N)=O)C(=O)N[C@@H](CC(=O)O)C(=O)N[C@@H](Cc1ccccc1)C(=O)N[C@H](C(=O)N[C@@H](CCC(N)=O)C(=O)N[C@@H](Cc1c[nH]c2ccccc12)C(=O)N[C@@H](CC(C)C)C(=O)N[C@@H](CCSC)C(=O)N[C@@H](CC(N)=O)C(=O)N[C@H](C(=O)N[C@H](CCCCN)C(=O)N[C@@H](CCC(N)=O)C(=O)O)[C@@H](C)O)C(C)C)C(=O)O)C(=O)O [MM103]

GCGR occupancy ([6]; 1.5 mpk): 84%
Compound: glucagon [reference compound]

EC50 [2]: 0.006 nM
Compound: CCCCCCCCCCCCCC(=O)N[C@@H](CCC(=O)N[C@@H](CCC(=O)NCCCC[C@H](NC(=O)[C@H](CC(=O)O)NC(=O)[C@H](CO)NC(=O)[C@@H](NC(=O)[C@H](Cc1ccccc1)NC(=O)[C@@H](NC(=O)CNC(=O)[C@H](CCC(N)=O)NC(=O)[C@@H](CO)NC(=O)[C@@H](N)Cc1c[nH]cn1)[C@@H](C)O)[C@@H](C)O)C(=O)N[C@@H](CO)C(=O)N[C@@H](CCCCN)C(=O)N[C@@H](Cc1ccc(O)cc1)C(=O)N[C@@H](CC(C)C)C(=O)N[C@@H](CC(=O)O)C(=O)NC(C)(C)C(=O)N[C@@H](CCCNC(=N)N)C(=O)N[C@@H](CCCNC(=N)N)C(=O)N[C@@H](C)C(=O)N[C@@H](CCC(N)=O)C(=O)N[C@@H](CC(=O)O)C(=O)N[C@@H](Cc1ccccc1)C(=O)N[C@H](C(=O)N[C@@H](CCC(N)=O)C(=O)N[C@@H](Cc1c[nH]c2ccccc12)C(=O)N[C@@H](CC(C)C)C(=O)N[C@@H](CCSC)C(=O)N[C@@H](CC(N)=O)C(=O)N[C@H](C(=O)N[C@@H](CCCCN)C(=O)N[C@@H](CCC(N)=O)C(=O)O)[C@@H](C)O)C(C)C)C(=O)O)C(=O)O [MM121]

glycogenolysis induced [8]: about 58% | EC50 ([3]; GCGR EC50, Table 4): 1630 nM | GCGR occupancy ([6]; subcutaneous, dose not given): 0%
Compound: HSEGTFTSDYSKYLDSRRAQDFVQWLMNTKRNRNNIA [OXM-Q3E]
GIR0-60 (glucose infusion rate) [7]: 55 ± 4 mg/kg/min | ΔBW ([9]; 5 mg/kg): −2.4% | Cumulative food intake change ([9]; 0.5 mg/kg): 215 kcal | Cumulative weight change ([9]; 0.5 mg/kg): -0.21 g | Cumulative food intake change ([9]; 5 mg/kg): 207 kcal | Cumulative weight change ([9]; 5 mg/kg): -0.21 g | effectiveness at reducing glucose relative to native peptide ([10]; comparison of the minimal effective dose, IPGTT): about 10 fold | blood glucose excursion in IPGTT ([10]; lean C57BL/6N mice, s.c.): significantly reduced blood glucose excursion in a dose-dependent manner
